Test results from patent US20210388012A1, “METHODS AND COMPOSITIONS FOR PRODRUG FORMS OF SPECTINOMYCIN AND SPECTINAMIDE ANALOGS” (priority 2018, published 2021).

Legend:
[1] = Metabolic stability, human liver microsomal degradation; format: in vitro ADME; conditions: human liver microsomes; read-out: Metabolic Stability (Human) t½ (converted)
Procedure: LC-MS Method 2. Chromatographic separation was performed on an Acquity UPLC BEH C18 1.7 μm, 2.1×50 mm column (Waters Corporation, Milford, Mass.) or a Luna Omega 1.6 μm C18, 2.1×50 mm column (Phenomenex, Torrance, Calif.) using an Acquity ultra performance liquid chromatography system. Data were acquired using Masslynx v. 4.1 and analyzed using the Openlynx software suite. This was coupled to an Acquity photodiode array detector, which acquired UV data from 210-400 nm. The flow was then split, with half directed to an evaporative light scattering detector (ELSD) and half to an SQ mass spectrometer. The total flow rate was 1 mL/min. The sample injection volume was 10 μL. The UPLC column was maintained at 60° C. and the gradient program with either basic mobile phase (A1, 10 mM ammonium bicarbonate in MilliQ H2O; B1, 0.1% formic acid in acetonitrile) or formic mobile phase (A1, 0.1% formic acid in MilliQ H2O; B1, 0.1% formic acid in acetonitrile) based on the compounds' physical and chemical properties. The mass spectrometer was operated in positive-ion mode with electrospray ionization. The conditions were as follows; capillary voltage 3.4 kV, cone voltage 30 V, source temperature 130° C., desolvation temperature 400° C., desolvation gas 800 L/hr, cone gas 100 L/hr. A full scan range from m/z=110-1000 in 0.2 s was used to acquire MS data. The ELSD-drift tube temperature was set at 52° C.
The stability of compounds to human liver microsomal degradation, i.e., metabolic stability, was determined as described previously (see North, E. J., et al, Bioorg. Med. Chem. (2013) 21(9):2587-2599) and the rate of degradation was monitored by LC-MS analysis using multiple sampled time points as described herein above in LC-MS Method 2. Metabolic stability was evaluated via the half-life from least squares fit of the concentration remaining at the time points based on first-order kinetics.

[2] = biological target: Mycobacterium smegmatis 70S bacterial ribosomes; assay: Ribosomal inhibition assay (luciferase-based protein synthesis inhibition); format: biochemical; conditions: purified M. smegmatis 70S ribosomes, firefly luciferase mRNA
Procedure: In vitro activity was also assessed using a ribosomal inhibition assay. Briefly, luciferase-based protein synthesis inhibition assays were performed in translation reaction as described previously (Bruell, et al. Biochemistry. 2008 47 (34), 8828-8839), using purified Mycobacterium smegmatis 70S bacterial ribosomes and firefly luciferase mRNA prepared in vitro using T7 RNA polymerase. IC50 values represent the drug concentration that inhibits luciferase activity by 50%.

[3] = PlasmaLyte A stability study; format: physicochemical; conditions: room temperature; for % remaining: 10 mg/mL in PlasmaLyte A and milli-Q water (50:50)
Procedure: LC-MS Method 1. Quantitative determination of the amount of a disclosed compound present in blood, plasma, or urinary can be determined by LC-MS/MS methods. Briefly, a suitable method involves use of calibrants (0.976, 1.95, 3.91, 7.81, 15.63, 31.25, 62.5, 125, 250, 500, 1000 ng/mL) were in sample matrix (e.g., rat plasma, blood or urine). A separate solution of disclosed compound (independent of calibrants) is used to prepare quality controls. Appropriate volumes of working solutions are added to the sample matrix to yield the final concentrations of 1, 50, 1000 ng/mL. Linearity for calibrants in duplicate is assessed by subjecting the spiked concentrations and the respective peak areas to least-square linear regression analysis with and without intercepts, and a weighted least-square regression (1/x or 1/x^2). The lowest limit of quantitation (LLOQ) in the standard curve measured with acceptable accuracy and precision for a disclosed compound from rat plasma has been previously established as 0.976 ng/mL for a representative compound, 1810. All samples are precipitated by the addition of 4-volumes (100 μL) of IS, 1369 (10 ng/mL) in methanol to a volume (25 μL) of plasma/urine test sample. The samples are vortexed (Fisher scientific, USA) for 30 sec and centrifuged at 10,000×g for 10 min at 4° C. and the supernatants are collected for LC-MS/MS analysis. Chromatographic separation is carried out using a Shimadzu Nexera XR (LC-20ADXR) liquid chromatograph (Shimadzu Corporation, USA) consisting of two pumps, online degasser, system controller and an auto sampler. Mobile phase consisting of a) water with 1.6% nonafluoropentanoic acid and 0.7% formic acid b) 90% acetonitrile with 0.8% nonafluoropentanoic acid and 0.35% formic acid can be used at a flow rate of 0.5 rnLirnin in gradient mode. A Waters® Symmetry ® 3.5μ C8, 50×2.1 mm column (Waters, Milford, Mass.) is used for the separation. Samples (5 μL) are injected on column and the eluate is provided directly to an API 5500 triple quadruple mass spectrometer (Applied Biosystems, Foster City, Calif.) equipped with a turbospray ion source operated in the positive ion mode. The optimized multiple reactions monitoring (MRM) conditions for 3408 (549.2A207.1), 1810 (469.2^207.1) and IS (418.3^207.1) are monitored with a declustering potential of 45 V and collision energy of 25 eV. Data are acquired and processed with Analyst software version 1.6.2 (Applied Biosystems, Foster City, Calif.).
Stability of compound 3408 was determined in a mixture of PlasmaLyte A and milli-Q water (50:50) at room temperature. Briefly, a 10 mg/mL solution of compound 3408 was prepared in triplicate and samples were collected (0, 1, 2, 3, 4, 5, 6 h). These samples were processed by addition of 4-volumes of methanol and quantitated by LC-MS/MS method disclosed herein in LC-MS Method 1. The percentage drug remaining at each hour was calculated with respect to the concetration at the initial time point.

Structure (SMILES): CN[C@@H]1[C@H](O)[C@H](NC)[C@H]2O[C@]3(O)[C@H](O[C@@H]2[C@H]1O)O[C@H](C)C[C@H]3NC(=O)Cc1ccc(OP(=O)(O)O)cn1 [Compound 3408, 6-(2-oxo-2-(((2R,4R,4a5,5aR,6S,7S,8R,9S,9aR,10aS)-4a,7,9-trihydroxy-2-methyl-6,8-bis(methylamino)decahydro-2H-benzo[b]pyrano[2,3-e][1,4]dioxin-4-yl)amino)ethyl)pyridin-3-yl dihydrogen phosphate]
- half-life [1]: < 5 min
- IC50 (M. smegmatis) [2]: 6.70 µg/mL
- % remaining ([3]; hour 0): 100%
- % remaining ([3]; hour 1): 103%
- % remaining ([3]; hour 2): 101%
- % remaining ([3]; hour 3): 105%
- % remaining ([3]; hour 4): 104%
- % remaining ([3]; hour 5): 104%
- % remaining ([3]; hour 6): 104%
- time stable in solution ([3]; 10 mg/mL in Plasmalyte A and milli-Q water mixture (50:50)): at least 6 hours
